# Measured values published in PubChem BioAssay (NCI).
#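 Assay format: 96-well plates, 48-hour exposure. TGI: concentration producing complete growth inhibition.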
# What was measured:
# Assay in all cases: NCI-60 cell line screen, 48 h
# [1] = system: 786-0 renal
# [2] = system: A498 renal
# [3] = system: A549 NSCLC
# [4] = system: ACHN renal
# [5] = system: BT-549 breast
# [6] = system: CAKI-1 renal
# [7] = system: CCRF-CEM leukemia
# [8] = system: COLO 205 colon
# [9] = system: DU-145 prostate
# [10] = system: EKVX NSCLC
# [11] = system: HCC-2998 colon
# [12] = system: HCT-116 colon
# [13] = system: HCT-15 colon
# [14] = system: HL-60(TB) leukemia
# [15] = system: HOP-62 NSCLC
# [16] = system: HOP-92 NSCLC
# [17] = system: HT29 colon
# [18] = system: IGROV1 ovarian
# [19] = system: K-562 leukemia
# [20] = system: KM12 colon
# [21] = system: LOX IMVI melanoma
# [22] = system: M14 melanoma
# [23] = system: MCF7 breast
# [24] = system: MDA-MB-231 breast
# [25] = system: MDA-MB-435
# [26] = system: MDA-N
# [27] = system: MOLT-4 leukemia
# [28] = system: NCI-H226 lung
# [29] = system: NCI-H23 lung
# [30] = system: NCI-H460 lung
# [31] = system: NCI-H522 lung
# [32] = system: NCI/ADR-RES ovarian
# [33] = system: OVCAR-3 ovarian
# [34] = system: OVCAR-4 ovarian
# [35] = system: OVCAR-5 ovarian
# [36] = system: OVCAR-8 ovarian
# [37] = system: PC-3 prostate
# [38] = system: RXF 393 renal
# [39] = system: SF-268 CNS
# [40] = system: SF-295 CNS
# [41] = system: SF-539 CNS
# [42] = system: SK-MEL-2 melanoma
# [43] = system: SK-MEL-28 melanoma
# [44] = system: SK-MEL-5 melanoma
# [45] = system: SK-OV-3 ovarian
# [46] = system: SN12C renal
# [47] = system: SNB-19 CNS
# [48] = system: SNB-75 CNS
# [49] = system: SW-620 colon
# [50] = system: TK-10 renal
# [51] = system: U251 CNS
# [52] = system: UACC-257 melanoma
# [53] = system: UO-31 renal
# [54] = system: HS 578T breast
# [55] = system: RPMI-8226 leukemia
# [56] = system: SR leukemia
# [57] = system: T-47D breast
structure (smiles),measurement,setting,value
c1ccc(OCc2nnc(CCCCCCCCc3nnc(COc4ccccc4)o3)o2)cc1,TGI,[1],> 100 µM
same,TGI,[2],> 100 µM
same,TGI,[3],> 100 µM
same,TGI,[4],> 100 µM
same,TGI,[5],> 100 µM
same,TGI,[6],> 100 µM
same,TGI,[7],> 100 µM
same,TGI,[8],> 100 µM
same,TGI,[9],> 100 µM
same,TGI,[10],> 100 µM
same,TGI,[11],> 100 µM
same,TGI,[12],> 100 µM
same,TGI,[13],> 100 µM
same,TGI,[14],> 100 µM
same,TGI,[15],> 100 µM
same,TGI,[16],> 100 µM
same,TGI,[17],> 100 µM
same,TGI,[18],> 100 µM
same,TGI,[19],> 100 µM
same,TGI,[20],> 100 µM
same,TGI,[21],> 100 µM
same,TGI,[22],> 100 µM
same,TGI,[23],> 100 µM
same,TGI,[24],> 100 µM
same,TGI,[25],> 100 µM
same,TGI,[26],> 100 µM
same,TGI,[27],> 100 µM
same,TGI,[28],> 100 µM
same,TGI,[29],> 100 µM
same,TGI,[30],> 100 µM
same,TGI,[31],> 100 µM
same,TGI,[32],> 100 µM
same,TGI,[33],> 100 µM
same,TGI,[34],> 100 µM
same,TGI,[35],> 100 µM
same,TGI,[36],> 100 µM
same,TGI,[37],> 100 µM
same,TGI,[38],30.8 µM
same,TGI,[39],> 100 µM
same,TGI,[40],> 100 µM
same,TGI,[41],> 100 µM
same,TGI,[42],> 100 µM
same,TGI,[43],> 100 µM
same,TGI,[44],> 100 µM
same,TGI,[45],> 100 µM
same,TGI,[46],> 100 µM
same,TGI,[47],> 100 µM
same,TGI,[48],83.4 µM
same,TGI,[49],> 100 µM
same,TGI,[50],> 100 µM
same,TGI,[51],> 100 µM
same,TGI,[52],> 100 µM
same,TGI,[53],> 100 µM
ClC1=C(Cl)C2OC3C=CCC3OC2C(Cl)=C1Cl (centres undefined),TGI,[1],> 100 µM
same,TGI,[2],> 100 µM
same,TGI,[4],> 100 µM
same,TGI,[6],> 100 µM
same,TGI,[7],> 100 µM
same,TGI,[9],> 100 µM
same,TGI,[10],> 100 µM
same,TGI,[11],88.4 µM
same,TGI,[12],> 100 µM
same,TGI,[13],> 100 µM
same,TGI,[14],> 100 µM
same,TGI,[15],> 100 µM
same,TGI,[16],> 100 µM
same,TGI,[54],89.7 µM
same,TGI,[17],72.1 µM
same,TGI,[18],> 100 µM
same,TGI,[19],> 100 µM
same,TGI,[20],> 100 µM
same,TGI,[21],> 100 µM
same,TGI,[22],> 100 µM
same,TGI,[23],> 100 µM
same,TGI,[24],> 100 µM
same,TGI,[25],> 100 µM
same,TGI,[26],> 100 µM
same,TGI,[27],> 100 µM
same,TGI,[28],> 100 µM
same,TGI,[29],> 100 µM
same,TGI,[30],> 100 µM
same,TGI,[31],> 100 µM
same,TGI,[32],> 100 µM
same,TGI,[33],> 100 µM
same,TGI,[34],> 100 µM
same,TGI,[35],> 100 µM
same,TGI,[36],> 100 µM
same,TGI,[37],> 100 µM
same,TGI,[55],66.4 µM
same,TGI,[38],> 100 µM
same,TGI,[39],> 100 µM
same,TGI,[40],> 100 µM
same,TGI,[41],> 100 µM
same,TGI,[42],48.1 µM
same,TGI,[43],> 100 µM
same,TGI,[44],> 100 µM
same,TGI,[45],> 100 µM
same,TGI,[56],> 100 µM
same,TGI,[49],> 100 µM
same,TGI,[57],> 100 µM
same,TGI,[50],> 100 µM
same,TGI,[51],> 100 µM
same,TGI,[52],> 100 µM
same,TGI,[53],> 100 µM
